{
  "source": "patent US20250235496A1",
  "about": "“USE OF BELLIDIFOLIN (BEL) AND/OR BEL-CONTAINING EXTRACT IN PREPARATION OF ANTIDEPRESSANT PRODUCT” (priority 2024, published 2025)",
  "experiment": "Mass spectrometry imaging of mouse brain",
  "format": "in vivo, mice",
  "details": "10, 20 and 40 mg/kg, 21 d",
  "data": [
    {"smiles": "COc1cc(O)c2c(=O)c3c(O)ccc(O)c3oc2c1", "note": "[BEL, bellidifolin]", "values": [
      {"measurement": "BEL signal in brain (mass spectrometry imaging), passage of BBB", "result": "BEL signals were detected"}
    ]}
  ]
}
